Test results published in patent US20070287752A1, “Ophthalmic Compositions Comprising A Branched, Glycerol Compound” (priority 2006, published 2007).

Key:
[1] = test system: Candida albicans (ATCC 10231); experiment: Preservative/disinfectant system efficacy testing (log reduction); type: cell-based
Experimental: (§1) The ophthalmic compositions are evaluated in accordance with specific procedures outlined by the US Food & Drug Administration and the International Organization for Standardization for the testing of microbiocidal efficacy.

[2] = test system: Fusarium solani (ATCC 36031); experiment: as above; type: cell-based
Experimental: as §1

[3] = test system: Serratia marcescens (ATCC 13880); experiment: as above; type: cell-based
Experimental: as §1

[4] = test system: Staphylococcus aureus (ATCC 6538); experiment: as above; type: cell-based
Experimental: as §1

[5] = test system: Pseudomonas aeruginosa, Staphylococcus aureus, Serratia marcescens, Candida albicans and Fusarium solani; settings: biocidal data from Examples 1, 2 and 3
Experimental: as §1

[6] = 1 hr, Table 5A multi-purpose lens care solution, 10% organic soil, disinfectant concentrations as in label
[7] = 1 hr, phosphate buffered saline, 10% organic soil, concentrations as in label (Table 4)
[8] = 4 hr, Table 5A multi-purpose lens care solution, 10% organic soil, disinfectant concentrations as in label
[9] = 4 hr, phosphate buffered saline, 10% organic soil, concentrations as in label (Table 4)
[10] = EHOPD 0.0001 wt %, 1 hr, borate buffered saline, 10% organic soil
[11] = EHOPD 0.0001 wt %, 1 hr, phosphate buffered saline, 10% Organic Soil
[12] = EHOPD 0.0001 wt %, 4 hr, borate buffered saline, 10% organic soil
[13] = EHOPD 0.0001 wt %, 4 hr, phosphate buffered saline, 10% Organic Soil
[14] = EHOPD 0.001 wt %, 1 hr, borate buffered saline, 10% organic soil
[15] = EHOPD 0.001 wt %, 1 hr, phosphate buffered saline, 10% Organic Soil
[16] = EHOPD 0.001 wt %, 4 hr, borate buffered saline, 10% organic soil
[17] = EHOPD 0.001 wt %, 4 hr, phosphate buffered saline, 10% Organic Soil
[18] = EHOPD 0.01 wt %, 1 hr, Table 3A multi-purpose lens care formulation, 10% organic soil
[19] = EHOPD 0.01 wt %, 1 hr, borate buffered saline, 10% organic soil
[20] = EHOPD 0.01 wt %, 1 hr, phosphate buffered saline, 10% Organic Soil
[21] = EHOPD 0.01 wt %, 4 hr, Table 3A multi-purpose lens care formulation, 10% organic soil
[22] = EHOPD 0.01 wt %, 4 hr, borate buffered saline, 10% organic soil
[23] = EHOPD 0.01 wt %, 4 hr, phosphate buffered saline, 10% Organic Soil
[24] = EHOPD 0.1 wt %, 1 hr, Table 3A multi-purpose lens care formulation, 10% organic soil
[25] = EHOPD 0.1 wt %, 1 hr, borate buffered saline, 10% organic soil
[26] = EHOPD 0.1 wt %, 1 hr, phosphate buffered saline, 10% Organic Soil
[27] = EHOPD 0.1 wt %, 4 hr, Table 3A multi-purpose lens care formulation, 10% organic soil
[28] = EHOPD 0.1 wt %, 4 hr, borate buffered saline, 10% organic soil
[29] = EHOPD 0.1 wt %, 4 hr, phosphate buffered saline, 10% Organic Soil
[30] = EHOPD 0.15 wt %, 1 hr, Table 3A multi-purpose lens care formulation, 10% organic soil
[31] = EHOPD 0.15 wt %, 4 hr, Table 3A multi-purpose lens care formulation, 10% organic soil
[32] = EHOPD 0.25 wt %, 1 hr, Table 3A multi-purpose lens care formulation, 10% organic soil
[33] = EHOPD 0.25 wt %, 4 hr, Table 3A multi-purpose lens care formulation, 10% organic soil
[34] = EHOPD 0.50 wt %, 1 hr, Table 3A multi-purpose lens care formulation, 10% organic soil
[35] = EHOPD 0.5 wt %, 1 hr, borate buffered saline, 10% organic soil
[36] = EHOPD 0.5 wt %, 1 hr, phosphate buffered saline, 10% Organic Soil
[37] = EHOPD 0.50 wt %, 4 hr, Table 3A multi-purpose lens care formulation, 10% organic soil
[38] = EHOPD 0.5 wt %, 4 hr, borate buffered saline, 10% organic soil
[39] = EHOPD 0.5 wt %, 4 hr, phosphate buffered saline, 10% Organic Soil
[40] = EHOPD 0.75 wt %, 1 hr, Table 3A multi-purpose lens care formulation, 10% organic soil
[41] = EHOPD 0.75 wt %, 4 hr, Table 3A multi-purpose lens care formulation, 10% organic soil
[42] = EHOPD 1.0 wt %, 1 hr, Table 3A multi-purpose lens care formulation, 10% organic soil
[43] = EHOPD 1.0 wt %, 4 hr, Table 3A multi-purpose lens care formulation, 10% organic soil

CCCCC(CC)COCC(O)CO (stereo not drawn) [EHOPD, 3-[(2-ethylhexyl)oxy]-1,2-propanediol] was tested, and the “log reduction C. albicans” value [1, 6] was 2.1, the “log reduction C. albicans” value [1, 7] was >5.0 and the “log reduction C. albicans” value [1, 8] was 2.8. The “log reduction C. albicans” value [1, 9] was >5.0, the “log reduction C. albicans” value [1, 10] was 2.3 and the “log reduction C. albicans” value [1, 11] was 2.3. For the same compound, the “log reduction C. albicans” value [1, 12] was 2.3, the “log reduction C. albicans” value [1, 13] was 2.3 and the “log reduction C. albicans” value [1, 14] was 2.3. The “log reduction C. albicans” value [1, 15] was 2.3, the “log reduction C. albicans” value [1, 16] was 2.3 and the “log reduction C. albicans” value [1, 17] was 2.3. The “log reduction C. albicans” value [1, 18] was 2.0, the “log reduction C. albicans” value [1, 19] was 2.3 and the “log reduction C. albicans” value [1, 20] was 2.3. For the same compound, the “log reduction C. albicans” value [1, 21] was 2.0, the “log reduction C. albicans” value [1, 22] was 2.3 and the “log reduction C. albicans” value [1, 23] was 2.3. The “log reduction C. albicans” value [1, 24] was 2.0, the “log reduction C. albicans” value [1, 25] was 5.4 and the “log reduction C. albicans” value [1, 26] was 3.8. The “log reduction C. albicans” value [1, 27] was 2.0, the “log reduction C. albicans” value [1, 28] was >5.7 and the “log reduction C. albicans” value [1, 29] was >5.7. The “log reduction C. albicans” value [1, 30] was 2.0, the “log reduction C. albicans” value [1, 31] was 2.0 and the “log reduction C. albicans” value [1, 32] was 2.0. The “log reduction C. albicans” value [1, 33] was 2.0, the “log reduction C. albicans” value [1, 34] was 2.0 and the “log reduction C. albicans” value [1, 35] was 5.1. For the same compound, the “log reduction C. albicans” value [1, 36] was 3.8, the “log reduction C. albicans” value [1, 37] was 3.1 and the “log reduction C. albicans” value [1, 38] was >5.7. For the same compound, the “log reduction C. albicans” value [1, 39] was >5.7, the “log reduction C. albicans” value [1, 40] was 4.2 and the “log reduction C. albicans” value [1, 41] was >5.5. For the same compound, the “log reduction C. albicans” value [1, 42] was >5.5, the “log reduction C. albicans” value [1, 43] was >5.5 and the “log reduction F. solani” value [2, 6] was 3.1. The “log reduction F. solani” value [2, 7] was 2.5, the “log reduction F. solani” value [2, 8] was 5.0 and the “log reduction F. solani” value [2, 9] was 5.0. The “log reduction F. solani” value [2, 10] was 1.3, the “log reduction F. solani” value [2, 11] was 2.3 and the “log reduction F. solani” value [2, 12] was 2.1. The “log reduction F. solani” value [2, 13] was 2.3, the “log reduction F. solani” value [2, 14] was 1.9 and the “log reduction F. solani” value [2, 15] was 1.8. For the same compound, the “log reduction F. solani” value [2, 16] was 1.9, the “log reduction F. solani” value [2, 17] was 2.9 and the “log reduction F. solani” value [2, 18] was 0.3. The “log reduction F. solani” value [2, 19] was 2.4, the “log reduction F. solani” value [2, 20] was 3.6 and the “log reduction F. solani” value [2, 21] was 0.5. The “log reduction F. solani” value [2, 22] was >5.8, the “log reduction F. solani” value [2, 23] was >5.8 and the “log reduction F. solani” value [2, 24] was 0.3. For the same compound, the “log reduction F. solani” value [2, 25] was >5.8, the “log reduction F. solani” value [2, 26] was >5.8 and the “log reduction F. solani” value [2, 27] was 0.5. For the same compound, the “log reduction F. solani” value [2, 28] was >5.8, the “log reduction F. solani” value [2, 29] was >5.8 and the “log reduction F. solani” value [2, 30] was 0.5. For the same compound, the “log reduction F. solani” value [2, 31] was >4.7, the “log reduction F. solani” value [2, 32] was 0.8 and the “log reduction F. solani” value [2, 33] was >4.7. The “log reduction F. solani” value [2, 34] was >4.7, the “log reduction F. solani” value [2, 35] was >5.8 and the “log reduction F. solani” value [2, 36] was >5.8. For the same compound, the “log reduction F. solani” value [2, 37] was >4.7, the “log reduction F. solani” value [2, 38] was >5.8 and the “log reduction F. solani” value [2, 39] was >5.8. The “log reduction F. solani” value [2, 40] was >4.7, the “log reduction F. solani” value [2, 41] was >4.7 and the “log reduction F. solani” value [2, 42] was >4.7. The “log reduction F. solani” value [2, 43] was >4.7, the “log reduction S. marcescens” value [3, 6] was 2.3 and the “log reduction S. marcescens” value [3, 7] was 3.0. The “log reduction S. marcescens” value [3, 8] was 3.3, the “log reduction S. marcescens” value [3, 9] was 3.9 and the “log reduction S. marcescens” value [3, 10] was 1.7. For the same compound, the “log reduction S. marcescens” value [3, 11] was 1.7, the “log reduction S. marcescens” value [3, 12] was 1.7 and the “log reduction S. marcescens” value [3, 13] was 1.7. The “log reduction S. marcescens” value [3, 14] was 1.7, the “log reduction S. marcescens” value [3, 15] was 1.7 and the “log reduction S. marcescens” value [3, 16] was 1.7. For the same compound, the “log reduction S. marcescens” value [3, 17] was 3.2, the “log reduction S. marcescens” value [3, 18] was 2.0 and the “log reduction S. marcescens” value [3, 19] was 1.7. For the same compound, the “log reduction S. marcescens” value [3, 20] was >5.2, the “log reduction S. marcescens” value [3, 21] was 2.0 and the “log reduction S. marcescens” value [3, 22] was 1.7. The “log reduction S. marcescens” value [3, 23] was >5.2, the “log reduction S. marcescens” value [3, 24] was 2.0 and the “log reduction S. marcescens” value [3, 25] was 4.8. For the same compound, the “log reduction S. marcescens” value [3, 26] was >5.2, the “log reduction S. marcescens” value [3, 27] was 2.0 and the “log reduction S. marcescens” value [3, 28] was >5.2. The “log reduction S. marcescens” value [3, 29] was >5.2, the “log reduction S. marcescens” value [3, 30] was 2.0 and the “log reduction S. marcescens” value [3, 31] was 4.7. The “log reduction S. marcescens” value [3, 32] was >5.4, the “log reduction S. marcescens” value [3, 33] was >5.4 and the “log reduction S. marcescens” value [3, 34] was >5.4. The “log reduction S. marcescens” value [3, 35] was 4.9, the “log reduction S. marcescens” value [3, 36] was >5.2 and the “log reduction S. marcescens” value [3, 37] was >5.4. The “log reduction S. marcescens” value [3, 38] was >5.2, the “log reduction S. marcescens” value [3, 39] was >5.2 and the “log reduction S. marcescens” value [3, 40] was >5.4. For the same compound, the “log reduction S. marcescens” value [3, 41] was >5.4, the “log reduction S. marcescens” value [3, 42] was >5.4 and the “log reduction S. marcescens” value [3, 43] was >5.4. For the same compound, the “log reduction S. aureus” value [4, 6] was 1.2, the “log reduction S. aureus” value [4, 7] was 1.2 and the “log reduction S. aureus” value [4, 8] was 1.2. For the same compound, the “log reduction S. aureus” value [4, 9] was 1.3, the “log reduction S. aureus” value [4, 10] was 1.4 and the “log reduction S. aureus” value [4, 11] was 1.4. The “log reduction S. aureus” value [4, 12] was 1.4, the “log reduction S. aureus” value [4, 13] was 1.4 and the “log reduction S. aureus” value [4, 14] was 1.4. The “log reduction S. aureus” value [4, 15] was 1.4, the “log reduction S. aureus” value [4, 16] was 1.4 and the “log reduction S. aureus” value [4, 17] was 1.4. For the same compound, the “log reduction S. aureus” value [4, 18] was 1.4, the “log reduction S. aureus” value [4, 19] was 1.4 and the “log reduction S. aureus” value [4, 20] was 1.4. The “log reduction S. aureus” value [4, 21] was 1.4, the “log reduction S. aureus” value [4, 22] was 1.4 and the “log reduction S. aureus” value [4, 23] was 1.4. For the same compound, the “log reduction S. aureus” value [4, 24] was 1.4, the “log reduction S. aureus” value [4, 25] was 1.7 and the “log reduction S. aureus” value [4, 26] was 1.4. For the same compound, the “log reduction S. aureus” value [4, 27] was 1.4, the “log reduction S. aureus” value [4, 28] was 4.0 and the “log reduction S. aureus” value [4, 29] was 3.0. The “log reduction S. aureus” value [4, 30] was 1.4, the “log reduction S. aureus” value [4, 31] was 1.4 and the “log reduction S. aureus” value [4, 32] was 1.4. For the same compound, the “log reduction S. aureus” value [4, 33] was 1.4, the “log reduction S. aureus” value [4, 34] was 1.4 and the “log reduction S. aureus” value [4, 35] was 1.8. For the same compound, the “log reduction S. aureus” value [4, 36] was 1.4, the “log reduction S. aureus” value [4, 37] was 1.8 and the “log reduction S. aureus” value [4, 38] was 4.3. The “log reduction S. aureus” value [4, 39] was 3.1, the “log reduction S. aureus” value [4, 40] was 1.6 and the “log reduction S. aureus” value [4, 41] was 3.1. For the same compound, the “log reduction S. aureus” value [4, 42] was 2.2, the “log reduction S. aureus” value [4, 43] was 3.7 and the “biocidal activity (in words)” value [5] was “significant activity against all of the microorganisms in the study”.
